Reference: ChEMBL document CHEMBL1134245, “Two novel and potent 3-[(o-methoxyphenyl)piperazinylethyl]-5-phenylthien” (Bioorg Med Chem Lett, 2001)

What was measured:
[1] = biological target: T1, Alpha-1D adrenergic receptor (Homo sapiens, UniProt P25100); test: Binding affinity towards human Alpha-1D adrenergic receptor
T1 sequence (P25100 whole entry): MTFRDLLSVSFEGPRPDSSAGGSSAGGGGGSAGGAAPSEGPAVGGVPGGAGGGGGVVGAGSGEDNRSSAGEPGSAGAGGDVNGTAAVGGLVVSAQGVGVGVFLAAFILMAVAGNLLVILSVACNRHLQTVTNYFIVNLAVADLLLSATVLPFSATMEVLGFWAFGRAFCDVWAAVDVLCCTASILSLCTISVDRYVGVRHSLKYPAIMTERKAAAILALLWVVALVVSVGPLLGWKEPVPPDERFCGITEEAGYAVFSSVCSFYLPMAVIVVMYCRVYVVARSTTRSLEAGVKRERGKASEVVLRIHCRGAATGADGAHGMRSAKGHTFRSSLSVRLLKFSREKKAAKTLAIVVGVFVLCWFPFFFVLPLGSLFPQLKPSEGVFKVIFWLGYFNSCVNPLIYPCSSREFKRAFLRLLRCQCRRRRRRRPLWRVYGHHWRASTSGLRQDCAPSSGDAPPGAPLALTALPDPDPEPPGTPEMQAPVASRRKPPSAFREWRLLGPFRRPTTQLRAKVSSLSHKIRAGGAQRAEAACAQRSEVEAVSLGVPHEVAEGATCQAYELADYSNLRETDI

[2] = biological target: T2, Alpha-2A adrenergic receptor (Homo sapiens, UniProt P08913); test: Ancillary Binding affinity towards cloned human Alpha-2A adrenergic receptor
T2 sequence (P08913 whole entry): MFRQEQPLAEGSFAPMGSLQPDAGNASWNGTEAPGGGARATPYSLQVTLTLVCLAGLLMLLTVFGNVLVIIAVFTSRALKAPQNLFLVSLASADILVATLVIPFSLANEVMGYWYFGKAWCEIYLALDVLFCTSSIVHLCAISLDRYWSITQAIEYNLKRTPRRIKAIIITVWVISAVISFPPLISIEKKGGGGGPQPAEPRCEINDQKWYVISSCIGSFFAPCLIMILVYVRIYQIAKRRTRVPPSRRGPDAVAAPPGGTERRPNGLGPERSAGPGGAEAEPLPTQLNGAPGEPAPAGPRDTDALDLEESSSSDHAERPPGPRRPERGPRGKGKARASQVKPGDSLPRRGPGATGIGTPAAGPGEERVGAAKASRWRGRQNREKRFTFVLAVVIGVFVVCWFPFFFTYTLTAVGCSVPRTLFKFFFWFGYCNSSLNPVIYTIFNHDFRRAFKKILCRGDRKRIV

[3] = biological target: T3, Alpha-1B adrenergic receptor (Rattus norvegicus, UniProt P15823); test: In vitro functional activity at Alpha-1B adrenergic receptor in rat spleen; format: tissue-based; conditions: read-out: pA2 (converted)
T3 sequence (P15823 whole entry): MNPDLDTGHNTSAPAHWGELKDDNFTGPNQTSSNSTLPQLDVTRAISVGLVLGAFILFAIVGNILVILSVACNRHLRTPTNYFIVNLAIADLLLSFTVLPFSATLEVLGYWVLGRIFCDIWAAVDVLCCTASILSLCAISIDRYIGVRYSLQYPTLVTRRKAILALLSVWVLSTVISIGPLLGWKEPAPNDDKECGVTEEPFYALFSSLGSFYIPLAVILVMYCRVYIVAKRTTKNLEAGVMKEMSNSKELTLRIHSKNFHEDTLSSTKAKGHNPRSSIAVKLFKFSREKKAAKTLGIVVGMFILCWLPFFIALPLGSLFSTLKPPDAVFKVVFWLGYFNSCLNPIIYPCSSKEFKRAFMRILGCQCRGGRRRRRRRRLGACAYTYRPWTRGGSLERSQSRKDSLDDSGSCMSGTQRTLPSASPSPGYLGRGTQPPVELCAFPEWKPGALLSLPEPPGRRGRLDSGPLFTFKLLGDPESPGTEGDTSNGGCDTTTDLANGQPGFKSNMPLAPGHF

[4] = biological target: T4, Alpha-1A adrenergic receptor (Bos taurus, UniProt P18130); test: Binding affinity towards bovine Alpha-1A adrenergic receptor
T4 sequence (P18130 whole entry): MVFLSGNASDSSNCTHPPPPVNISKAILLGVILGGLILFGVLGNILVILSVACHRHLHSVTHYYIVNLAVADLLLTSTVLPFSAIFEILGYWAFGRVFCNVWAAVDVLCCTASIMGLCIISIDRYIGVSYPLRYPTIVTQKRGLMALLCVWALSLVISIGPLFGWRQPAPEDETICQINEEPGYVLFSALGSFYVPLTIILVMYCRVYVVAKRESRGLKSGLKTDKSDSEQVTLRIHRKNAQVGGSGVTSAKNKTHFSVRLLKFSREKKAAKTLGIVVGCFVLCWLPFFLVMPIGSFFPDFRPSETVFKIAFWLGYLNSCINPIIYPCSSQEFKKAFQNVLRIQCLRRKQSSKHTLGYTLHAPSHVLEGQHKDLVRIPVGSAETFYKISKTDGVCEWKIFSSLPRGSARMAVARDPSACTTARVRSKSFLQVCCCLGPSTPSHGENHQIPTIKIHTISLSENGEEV

[5] = biological target: Serotonin 1 (5-HT1) receptor (Rattus norvegicus, UniProt P28564+P30940+P19327+P28565); test: Ancillary Binding affinity towards rat 5-hydroxytryptamine 1 receptor; format: protein assay
[6] = biological target: T5, Alpha-1A adrenergic receptor (Rattus norvegicus, UniProt P43140); test: In vitro functional activity at Alpha-1A adrenergic receptor in rat vas deferens; format: tissue-based; conditions: read-out: pA2 (converted)
T5 sequence (P43140 whole entry): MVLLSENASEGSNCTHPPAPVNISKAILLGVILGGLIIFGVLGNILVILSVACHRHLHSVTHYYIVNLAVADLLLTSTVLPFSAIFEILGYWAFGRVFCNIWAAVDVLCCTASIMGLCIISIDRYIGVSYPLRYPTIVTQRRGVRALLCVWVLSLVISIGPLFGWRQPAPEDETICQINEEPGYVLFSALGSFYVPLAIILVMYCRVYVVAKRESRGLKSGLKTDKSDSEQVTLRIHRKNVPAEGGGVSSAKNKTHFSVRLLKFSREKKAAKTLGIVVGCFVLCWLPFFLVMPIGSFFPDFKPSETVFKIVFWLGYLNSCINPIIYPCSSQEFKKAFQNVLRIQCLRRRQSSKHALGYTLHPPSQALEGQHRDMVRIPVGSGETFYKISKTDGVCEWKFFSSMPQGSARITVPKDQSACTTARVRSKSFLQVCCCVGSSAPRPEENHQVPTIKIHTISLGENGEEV

Ki [1] [nM]	Ki [2] [nM]	Kb [3] [nM]	Ki [4] [nM]	Ki [5] [nM]	Kb [6] [nM]	Structure (SMILES)
0.252	77.8	2.04	0.274	5490	8.51	COc1ccccc1N1CCN(CCn2c(=O)[nH]c3scc(-c4ccccc4)c3c2=O)CC1 [A-119637]
0.312	82.5	1.74	0.348	12300	4.37	COc1ccccc1N1CCN(CCn2c(=O)[nH]c3scc(-c4cccc(C)c4)c3c2=O)CC1 [A-123189]
